# Measured values reported in patent US20080187508A1, “Treatment of Golmerular Basement Membrane Disease Involving Matrix Metalloproteinase-12” (BOYS TOWN NATIONAL RESEARCH HOSPITAL, priority 2004, published 2008).
# “Also recorded” adds a separate entry of the source.
# What was measured:
# Alport mice [1] = conditions: cited from earlier work
# Alport mice [2] = test: transmission electron microscopy of glomerular basement membrane of treated Alport mice; assay type: in vivo, mouse
# Description: The Alport mouse model has been described (Cosgrove et al. (1996) Genes Dev. 10, 2981-2992). The control mice used were normal for both collagen α3(IV) alleles, and are a product of double heterozygote crosses for the Alport mutation. The use of animals in this study was performed in accordance with an approved institutional IACUC protocol. Extreme care was taken to minimize pain and discomfort suffered by the mice. MMP inhibitors were administered between 4 and 7 weeks of age. All drugs were freshly prepared prior to administration. BAY 129566 was emulsified in suspension with 0.5% carboxymethyl cellulose and 4 mg given once a day by oral gavage. MMI-270 was solubilized in 0.9% saline and administered by I.P. injection (50 μg/g body weight) once a day. Transmission electron microscopy was performed as previously described (Cosgrove et al., 1996, Genes Dev. 10, 2981-2992). Ultrastructural localization studies of type IV collagen were performed essentially as previously described (Bhattacharya et al., 2002). Kidneys from 7-week-old control and Alport mice were fixed by heart perfusion with 2% paraformaldehyde in PBS, and post-fixed in this same solution overnight. Ultrathin (70 nm) sections were reacted for 4 hours at room temperature with goat anti-collagen IV antibodies (Southern Biotechnology, Birmingham, Ala.). After six 10 minute washes in PBS, specimen were reacted for 2 hours at room temperature with 10 nanometers (nm) gold-conjugated anti-rabbit antibodies (Vector Laboratories, Burlingame, Calif.). Grids were washed as before, air-dried, counterstained with uranyl acetate, and examined using transmission electron microscopy. Propagermanium (3-oxygemylpropinic acid polymer, Sanwa Kagaku Kenkyusho Co., Nagoya, Japan) was administered orally (10 milligrams per kilogram (mg/kg) in 1% gelatin) by gavage once daily starting at 5 weeks of age, and kidneys harvested at 7 weeks of age. Three animals per group, Alport mice and control litter mates, gavaged with drug or vehicle only, were analyzed. […] Proteolytic degradation of the GBM in Alport syndrome might underlie the progressive irregular GBM damage and podocyte foot process effacement. Type IV collagen from Alport kidneys is more susceptible to proteolytic degradation in vitro than type IV collagen from healthy kidneys (Kalluri et al. (1997) J. Clin. Invest. 99, 2470-2478, presumably owing to the reduced number of interchain disulfide crosslinks (Gunwar et al. (1998) J. Biol. Chem. 273, 8767-8775).
# MMP-12 mRNA = test: real time PCR of glomerular RNA of propagermanium-treated Alport mice: MMP-12; assay type: in vivo, mouse; conditions: propagermanium 10 mg/kg oral gavage once daily from 5 to 7 weeks of age, 50-fold in vehicle-treated
# Description: (§1) Isolation of mouse glomeruli was performed as described by Takemoto et al., (Am. J. Pathol. (2002)161, 799-805). The procedure involves cardiac perfusion with deactivated […] Dynabeads (Dynal Biotech, Oslo, Sweden), followed by collagenase digestion and glomerular isolation using a magnet.
# (§2) Total RNA samples were treated with RNase-free DNase I (Gibco BRL, USA) at 37° C. for 1 hour (hr) in order to remove any contaminating genomic DNA before reverse transcription (RT). Total RNA was reverse-transcribed by using Superscript II (GIBCO BRL) with oligo dt primers. To ensure that the quantitation of MMP transcripts in serial samples was not affected by differences in the amount of RNA added, integrity of RNA, or sample to sample differences in levels of RT-PCR inhibition, an internal control reaction targeting the GAPDH gene was run in multiplex with each reaction, and used to normalize results for MMP transcripts. […] The data were analyzed using comparative threshold cycle (CT) method. The mRNA quantity for the control is expressed as 1× sample and all other quantities from Alport samples are expressed as fold difference relative to the controls. No measurable fluorescence signal was detected in repeated RT-PCR runs in which the reverse transcriptase was omitted from the reaction mixture. […]
# MMP-9 mRNA = test: real time PCR of glomerular RNA of propagermanium-treated Alport mice: MMP-9; assay type: in vivo, mouse; conditions: propagermanium 10 mg/kg oral gavage once daily from 5 to 7 weeks of age
# Description: as §1, §2
# MMP-3 mRNA = test: real time PCR of glomerular RNA of propagermanium-treated Alport mice: MMP-3; assay type: in vivo, mouse; conditions: propagermanium 10 mg/kg oral gavage once daily from 5 to 7 weeks of age
# Description: as §1, §2
# MMP-2 = biological target: T1, MMP-2 (Homo sapiens, UniProt P08253); conditions: listed as BAY 129566; cited from earlier work
# T1 sequence (P08253 110-660): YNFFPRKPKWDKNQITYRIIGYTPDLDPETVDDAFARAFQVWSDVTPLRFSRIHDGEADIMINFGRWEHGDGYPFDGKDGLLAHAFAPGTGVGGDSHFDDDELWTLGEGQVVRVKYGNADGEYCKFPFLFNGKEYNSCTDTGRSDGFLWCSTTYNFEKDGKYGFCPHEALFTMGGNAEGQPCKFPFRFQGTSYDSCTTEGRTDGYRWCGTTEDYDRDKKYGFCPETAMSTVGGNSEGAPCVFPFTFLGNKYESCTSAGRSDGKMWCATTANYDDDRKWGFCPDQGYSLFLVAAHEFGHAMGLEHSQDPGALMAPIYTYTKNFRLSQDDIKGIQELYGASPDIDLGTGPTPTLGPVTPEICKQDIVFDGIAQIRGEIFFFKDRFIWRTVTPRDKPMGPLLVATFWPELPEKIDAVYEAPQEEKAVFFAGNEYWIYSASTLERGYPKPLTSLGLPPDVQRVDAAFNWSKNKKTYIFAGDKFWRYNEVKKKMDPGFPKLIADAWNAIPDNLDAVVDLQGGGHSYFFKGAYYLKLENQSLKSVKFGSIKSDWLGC
# MMP-12 = MMP-12 (Homo sapiens, UniProt P39900); conditions: listed as BAY-12-9566; cited from earlier work
# MMP-12, sequence (P39900 106-470, species assumed): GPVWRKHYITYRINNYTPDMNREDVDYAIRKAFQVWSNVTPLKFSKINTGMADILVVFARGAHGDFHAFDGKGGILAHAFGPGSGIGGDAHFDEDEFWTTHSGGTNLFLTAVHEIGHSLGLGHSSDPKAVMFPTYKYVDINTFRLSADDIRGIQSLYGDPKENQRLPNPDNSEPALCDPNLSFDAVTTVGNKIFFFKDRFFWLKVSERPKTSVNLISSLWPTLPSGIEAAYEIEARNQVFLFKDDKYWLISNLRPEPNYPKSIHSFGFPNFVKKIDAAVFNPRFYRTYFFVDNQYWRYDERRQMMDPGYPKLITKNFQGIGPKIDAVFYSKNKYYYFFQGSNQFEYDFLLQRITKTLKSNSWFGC
# MMP-14 = MMP-14 (Homo sapiens, UniProt P50281); conditions: listed as BAY 129566; cited from earlier work
# MMP-3 = MMP-3 (Homo sapiens, UniProt P08254); conditions: listed as BAY 129566; cited from earlier work
# MMP-3, sequence (P08254 100-477, species assumed): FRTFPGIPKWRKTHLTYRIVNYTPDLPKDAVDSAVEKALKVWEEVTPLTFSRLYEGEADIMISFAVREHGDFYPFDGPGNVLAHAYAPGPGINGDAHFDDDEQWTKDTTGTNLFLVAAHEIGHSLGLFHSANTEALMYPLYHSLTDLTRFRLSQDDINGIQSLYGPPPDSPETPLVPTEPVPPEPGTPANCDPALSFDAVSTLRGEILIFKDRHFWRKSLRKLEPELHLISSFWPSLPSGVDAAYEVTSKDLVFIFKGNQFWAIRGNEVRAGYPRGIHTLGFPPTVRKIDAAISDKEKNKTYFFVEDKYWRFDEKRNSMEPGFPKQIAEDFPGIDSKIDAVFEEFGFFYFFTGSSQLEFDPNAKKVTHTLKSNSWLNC
# Alport mice [3] = test: immunofluorescence of kidney cryosections (fibronectin, collagen IV α1/α2) of treated Alport mice; assay type: in vivo, mouse; conditions: Alport mice treated from 4 to 7 weeks of age; MMI-270 50 μg/g I.P., BAY 129566 4 mg once daily oral gavage; fibronectin and collagen IV α1/α2 immunostaining
# Description: The Alport mouse model has been described (Cosgrove et al. (1996) Genes Dev. 10, 2981-2992). The control mice used were normal for both collagen α3(IV) alleles, and are a product of double heterozygote crosses for the Alport mutation. The use of animals in this study was performed in accordance with an approved institutional IACUC protocol. Extreme care was taken to minimize pain and discomfort suffered by the mice. MMP inhibitors were administered between 4 and 7 weeks of age. All drugs were freshly prepared prior to administration. BAY 129566 was emulsified in suspension with 0.5% carboxymethyl cellulose and 4 mg given once a day by oral gavage. MMI-270 was solubilized in 0.9% saline and administered by I.P. injection (50 μg/g body weight) once a day.
# Cryosections ([…]) of kidneys from 7-week-old normal and Alport mice were air dried, fixed by immersion in ice cold acetone, and subjected to immunohistochemical staining analysis using antibodies specific for MMP-3 (rabbit polyclonal anti-human MMP-3, a gift from Dr. Z. Gunza-Smith, Miami, Fla., used at 1:200 dilution), MMP-12 (rabbit polyclonal antibody against mouse MMP-12, kindly provided by Yoshikatsu Kaneko, used at 1:100 dilution), type IV collagen α1/2 chains (rabbit polyclonal against mouse type IV collagen, Biodesign, Inc., Saco, Me., used at 1:200 dilution), fibronectin (rabbit polyclonal against human plasma fibronectin, Sigma Chemical Co., St. Louis, Mo., used at 1:200). Anti-CD31 antibodies were directly conjugated to Alexa 568 (Molecular Probes, Eugene Oreg.) and purchased from Immunotech (Marseille, France). […] Images were collected using a Cytovision Ultra Image analysis system interfaced with an Olympus BH-2 fluorescence microscope.
# To assess the effect of these two compounds on Alport renal disease progression, Alport mice were administered either MMI 270 or BAY 129566 from 4 to 7 weeks of age. […] Cryosections were analyzed by immunofluorescence microscopy to assess for the degree of glomerular and tubulointerstitial damage using antibodies specific for collagen IV α1 and α2 chains, and fibronectin.
# MMP-9 = MMP-9 (Homo sapiens, UniProt P14780); conditions: listed as BAY 129566; cited from earlier work
# MMP-9, sequence (P14780 94-707, species assumed): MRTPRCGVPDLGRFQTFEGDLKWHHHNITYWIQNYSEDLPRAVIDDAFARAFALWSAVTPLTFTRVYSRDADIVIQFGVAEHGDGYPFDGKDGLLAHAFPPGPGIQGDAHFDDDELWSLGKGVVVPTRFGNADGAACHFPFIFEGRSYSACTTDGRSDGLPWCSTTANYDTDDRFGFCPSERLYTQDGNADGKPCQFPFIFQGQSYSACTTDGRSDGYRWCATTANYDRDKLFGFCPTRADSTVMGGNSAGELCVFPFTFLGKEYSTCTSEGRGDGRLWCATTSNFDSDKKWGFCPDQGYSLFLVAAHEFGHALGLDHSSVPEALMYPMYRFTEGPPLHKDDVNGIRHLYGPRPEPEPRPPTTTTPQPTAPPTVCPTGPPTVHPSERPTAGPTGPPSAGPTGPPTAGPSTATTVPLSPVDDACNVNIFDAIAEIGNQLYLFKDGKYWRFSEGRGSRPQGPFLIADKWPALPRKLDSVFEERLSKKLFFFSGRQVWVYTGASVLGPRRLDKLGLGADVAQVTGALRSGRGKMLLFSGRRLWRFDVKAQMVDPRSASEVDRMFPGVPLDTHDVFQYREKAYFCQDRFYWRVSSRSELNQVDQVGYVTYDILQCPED
compound,measurement,setting,value
CCOC(=O)[C@H](CCc1ccccc1)N[C@@H](C)C(=O)N1[C@H](C(=O)O)C[C@@H]2CCC[C@@H]21 [Ramipril],lifespan,Alport mice [1],doubles
3-oxygermylpropionic acid [propagermanium],glomerular basement membrane architecture,"Alport mice [2]; Alport mice, propagermanium 10 mg/kg oral gavage once daily from 5 to 7 weeks of age, transmission electron microscopy",restores normal GBM architecture
same,MMP-12 mRNA induction in glomeruli relative to normal controls,MMP-12 mRNA,6 fold
same,induction of MMP-9 mRNA in glomeruli,MMP-9 mRNA,unaffected
same,induction of MMP-3 mRNA in glomeruli,MMP-3 mRNA,unaffected
O=C(C[C@H](CSc1ccccc1)C(=O)O)c1ccc(-c2ccc(Cl)cc2)cc1 [BAY 12-9566],glomerular basement membrane architecture,"Alport mice [2]; Alport mice treated with MMP inhibitor from 4 to 7 weeks of age, electron microscopy",no effect
same,"MMP inhibitory effect, MMP-2",MMP-2,inhibits
same,"MMP inhibitory effect, MMP-12",MMP-12,does not
same,"MMP inhibitory effect, MMP-14",MMP-14,inhibits
same,"MMP inhibitory effect, MMP-3",MMP-3,inhibits
same,glomerular and tubulointerstitial (renal) disease progression,Alport mice [3],same degree of renal pathology as untreated Alport mice; also recorded: no obvious effect; also recorded: did not significantly affect; also recorded: no improvement
same,"MMP inhibitory effect, MMP-9",MMP-9,inhibits
